Consider 2 compounds from patent US11826466B2, “Bendamustine solution formulations” (Navinta, LLC, priority 2016, dated 2023).

The nature of data set [1]: Solubility of Bendamustine Hydrochloride in DMA.
Data set [2] in a line: Solubility of Bendamustine Hydrochloride in DMA-Water Mixture. The format is physicochemical. The conditions noted are these: organic solvent or mixture, thermodynamic from solid, 5° C. As for the experimental part:
To 10 ml of DMA-water mixture, excess (˜2-3 g) of Bendamustine Hydrochloride hydrate was added and the mixture was stirred for 24 hr while keeping in a constant temperature bath. After 24 hr, the mixture was centrifuged to remove the undissolved solid and the supernatant was filtered through a 0.2 micron filter. The clear filtrate was assayed.

For data set [3] the following is noted: room temperature; reported in U.S. Pat. No. 8,344,006; cited from earlier work.

Structures can show the parent of a compound that is named as a salt.

For `Cn1c(CCCC(=O)O)nc2cc(N(CCCl)CCCl)ccc21` [Bendamustine Hydrochloride hydrate], the “concentration of solutions in DMA made by adding water to DMA” value in data set [1] (DMA with added water) is on record as “up to 200 mg/mL”. In addition, the solubility in data set [1] (DMA, 2 °C, organic solvent or mixture) is roughly 65 mg/mL. Moreover, the solubility at 24 h in data set [2] (DMA:Water 60:40) was 67 mg/mL; in data set [2] (DMA:Water 80:20) it was 169 mg/mL; in data set [2] (DMA:Water 90:10), 201 mg/mL; in data set [2] (DMA:Water 95:5) it was 114 mg/mL; in data set [2] (DMA:Water 97:3), 116 mg/mL; in data set [2] (DMA), 72 mg/mL.
In the case of `Cn1c(CCCC(=O)O)nc2cc(N(CCCl)CCCl)ccc21` [Bendamustine Hydrochloride], in data set [3], the “solubility in DMA” value is “about 56 mg/mL”.

By solubility is commonly meant the concentration that dissolves in the medium under given conditions.
